From patent US11260066B2, “Inhibiting reduction of lean body mass and inhibiting accumulation of liver fat by administering allulose” (SAMYANG CORPORATION, priority 2017, dated 2022)

How the values were obtained:
[1] = design: species or system human; conditions: in vivo
[2] = design: species or system human; conditions: in vivo; remark: listed apart in the source
Experimental: Furthermore, the difference of the average change between the three groups at 12 weeks compared to the base time for the items was analyzed in the laboratory test.

[3] = Glucose index test (FBS, Insulin, HbA1c) on collected blood, human application test; type: in vivo; conditions: for Glucose, 12 W, Mean / Glucose, 12 W, Median / HbA1, 12 W, Mean / HbA1, 12 W, Median / Insulin, 12 W, Mean / Insulin, 12 W, Median / Glucose, Difference (12 W vs baseline) / Insulin, Difference (12 W vs baseline): ITT 33
Excerpt: After conducting a screening test for those who heard the detailed description of the purpose and research method of the present example and agreed in writing as subjects, those who met the selection/exclusion criteria were selected. The specific selection criteria are as follows, and the final selected subjects are 99 men and women who are overweight or obese, and the demographic information of the selected subjects is shown in the following Table 1. Ninety nine (99) subjects were randomly assigned to the high-dose group, low-dose group or control group, with including 33 subjects in each test group. In three test groups, the products were mixed in 100 ml of water and were administered orally twice a day. As the daily dose for one test subject, 12 g allulose in the high-dose group, 6 g allulose and 6 g anhydrous glucose in the low-dose group, and 12 g anhydrous glucose in the control group were divided and provided twice a day. It was administered from the day after the random assignment day (0 day), and was taken with drinking water twice at morning and evening with meals for 12 weeks. At the time of screening hospital visit (visit1), visit2 and final visit (visit5), FBS, Insulin, and HbAlc test was conducted for the collected blood. After calculating the average change of the glucose index (FBS, Insulin, HbAlc) after 12 weeks compared to the base time, technical statistics (mean, standard deviation, median value, minimum value, maximum value) were obtained. The comparative statistic test for the three groups was performed using ANOVA or Kruscal-Wallis test by testing whether data were normally distributed. When there was a significant difference between the three groups, the multiple comparisons were conducted through Tukey-Kramer method. In order to find out whether there was a difference in the mean change in a group, it was analyzed using Paired t-test or Wilcoxon's signed rank test.

[4] = Body fat and lean body mass measured by DXA, 12-week human application test; type: in vivo; conditions: for Lean, 12 W, Mean / Fat, Difference (average change at 12 weeks compared to base time) / Lean, Difference (12 W vs baseline): ITT 33; for Fat, 12 W, Mean: ITT 33 overweight/obese adults
Experimental: After conducting a screening test for those who heard the detailed description of the purpose and research method of the present example and agreed in writing as subjects, those who met the selection/exclusion criteria were selected. The specific selection criteria are as follows, and the final selected subjects are 99 men and women who are overweight or obese, and the demographic information of the selected subjects is shown in the following Table 1. The efficacy test was performed by dividing 99 selected test subjects into 3 groups, and by providing three products to the high-dose group (33 people), low-dose group (33 people), and control group (33 people), respectively. The allulose high-dose product was provided to the high-dose test group, and the allulose low-dose product was provided to the low-dose test group, and placebo product was provided to the control group. Ninety nine (99) subjects were randomly assigned to the high-dose group, low-dose group or control group, with including 33 subjects in each test group. In three test groups, the products were mixed in 100 ml of water and were administered orally twice a day. As the daily dose for one test subject, 12 g allulose in the high-dose group, 6 g allulose and 6 g anhydrous glucose in the low-dose group, and 12 g anhydrous glucose in the control group were divided and provided twice a day. It was administered from the day after the random assignment day (0 day), and was taken with drinking water twice at morning and evening with meals for 12 weeks. At the random assignment day (0 day), the efficacy evaluation items and safety evaluation items such as DXA measurement and the like were checked, and the evaluation items were also checked through hospital outpatient visit at 4 weeks, 8 weeks and 12 weeks from the day of beginning administration of test products. In addition, during the human application test, the usual physical activity of subjects was investigated using Korean version of International Physical Activity Questionnaire (IPAQ). During the human application test period, the subjects were trained to maintain the activity amount being similar to normal physical activity. At each hospital outpatient visit, the amount of meal intake was examined by the recording board made by the subjects. The subjects were trained to maintain the amount of meal intake being similar to the usual amount with avoiding overeating condition. At the time of second hospital visit (visit 2) and final hospital visit (visit 5), the body fat ratio and body fat were measured using prodigy DXA of U.S. Lunar Company. For the body fat measured by DXA, after calculating the change of the body fat after 12 weeks compared to the base time, technical statistics (mean, standard deviation, median value, minimum value, maximum value) were obtained. The comparative statistic test for the three groups was performed using ANOVA or Kruscal-Wallis test by testing whether data were normally distributed. When there was a significant difference between the three groups, the multiple comparison was conducted through Tukey-Kramer method. In order to find out whether there was a difference in the mean change in a group, it was analyzed using Paired t-test or Wilcoxon's signed rank test.

[5] = Liver CT: degree of fat deposition in the liver (HU of liver and spleen), human application test; type: in vivo; conditions: for Liver HU Mean, 12 W, Mean / Liver - Spleen HU (Liver minus Spleen), 12 W, Mean / Spleen HU Mean, 12 W, Mean: 12 weeks; for Liver HU Mean, 12 W, Mean / Liver HU Mean, Difference (12 W vs base line): ITT 33
Excerpt: After conducting a screening test for those who heard the detailed description of the purpose and research method of the present example and agreed in writing as subjects, those who met the selection/exclusion criteria were selected. The specific selection criteria are as follows, and the final selected subjects are 99 men and women who are overweight or obese, and the demographic information of the selected subjects is shown in the following Table 1. Ninety nine (99) subjects were randomly assigned to the high-dose group, low-dose group or control group, with including 33 subjects in each test group. In three test groups, the products were mixed in 100 ml of water and were administered orally twice a day. As the daily dose for one test subject, 12 g allulose in the high-dose group, 6 g allulose and 6 g anhydrous glucose in the low-dose group, and 12 g anhydrous glucose in the control group were divided and provided twice a day. It was administered from the day after the random assignment day (0 day), and was taken with drinking water twice at morning and evening with meals for 12 weeks. In order to evaluate the degree of fat deposition in the liver at the time of hospital visit 2 and visit 5, the HU of liver, HU of spleen, HU difference of liver and spleen (Liver minus Spleen), and HU ratio of liver and spleen (Ratio Between Liver and Spleen) after 12 weeks compared to the base time were measured. CT attenuation values (Hounsfield units) were measured in regions of interest (ROI) selected as a homogeneous place avoiding blood vessels in the right lobe of liver and spleen in one non-contrast-enhanced abdominal CT image including both liver and spleen three times, and the average value was taken as each CT attenuation number. Then, the size of each region of interest was designated equally as 120 mm^2. Through liver CT, for HU of liver, HU of spleen, HU difference of liver and spleen (Liver minus Spleen), and HU ratio of liver and spleen (Ratio Between Liver and Spleen) after 12 weeks, technical statistics (mean, standard deviation, median value, minimum value, maximum value) were proposed for the average change compared to the base time. The comparative statistic test for the three groups was performed using ANOVA or Kruscal-Wallis test by testing whether data were normally distributed. When there was a significant difference between the three groups, the multiple comparisons were conducted through Tukey-Kramer method. In order to find out whether there was a difference in the mean change in a group, it was analyzed using Paired t-test or Wilcoxon's signed rank test.

[6] = Blood chemical test (Alkaline phosphatase, AST, ALT, γ-GTP), human application test; type: in vivo; conditions: for ALT(SGPT), Mean / ALT(SGPT), Median / AST(SGOT), Mean / AST(SGOT), Median / Alkaline phosphatase, Mean / Alkaline phosphatase, Median / γ-GTP, Mean / γ-GTP, Median: ITT 33, time point not given; for ALT, change at 12 weeks compared to the base time / Alkaline phosphatase, change at 12 weeks compared to the base time / γ-GTP, change at 12 weeks compared to the base time: increased in control
Excerpt: After conducting a screening test for those who heard the detailed description of the purpose and research method of the present example and agreed in writing as subjects, those who met the selection/exclusion criteria were selected. The specific selection criteria are as follows, and the final selected subjects are 99 men and women who are overweight or obese, and the demographic information of the selected subjects is shown in the following Table 1. Ninety nine (99) subjects were randomly assigned to the high-dose group, low-dose group or control group, with including 33 subjects in each test group. In three test groups, the products were mixed in 100 ml of water and were administered orally twice a day. As the daily dose for one test subject, 12 g allulose in the high-dose group, 6 g allulose and 6 g anhydrous glucose in the low-dose group, and 12 g anhydrous glucose in the control group were divided and provided twice a day. It was administered from the day after the random assignment day (0 day), and was taken with drinking water twice at morning and evening with meals for 12 weeks. (4) Blood chemical test result The test items performed at screening visit (visit1), visit2 and end visit (visit5) were Alkaline phosphatase, AST, ALT, and γ-GTP. In case of continuous data, for the average change compared to the base time, technical statistics (mean, standard deviation, median value, minimum value, maximum value) were proposed for the average change compared to the base time. The comparative statistic test for the three groups was performed using ANOVA or Kruscal-Wallis test by testing whether data were normally distributed. When there was a significant difference between the three groups, the multiple comparison was conducted through Tukey-Kramer method. In order to find out whether there was a difference in the mean change in a group, it was analyzed using Paired t-test or Wilcoxon's signed rank test. In case of categorical data, technical statistics (frequency, percentage) were proposed, and comparative statistic test was performed between three groups using Chi-square test or Fisher' exact test.

[7] = high-dose group: allulose 12 g/d oral, 12 weeks
[8] = high-dose group: allulose 12 g/d oral
[9] = low-dose group: allulose 6 g/d + anhydrous glucose 6 g/d oral, 12 weeks
[10] = low-dose group: allulose 6 g/d + anhydrous glucose 6 g/d oral
[11] = high-dose group: allulose 12 g/d oral, N 33
[12] = low-dose group: allulose 6 g/d + anhydrous glucose 6 g/d oral, N 32
[13] = high-dose group: allulose 12 g/d, statistically significant before/after
[14] = low-dose group: allulose 6 g/d + glucose 6 g/d, statistically significant before/after

O=C(CO)C(O)C(O)C(O)CO (stereo not shown) [allulose]
diastolic blood pressure and pulse rate [1]: did not showed statistically significant difference between three groups | normality of the urine test [2]: no clinically significant abnormal subject | hypoglycemic effect (Glucose, Insulin, HbA1c) ([3]; high- and low-dose groups, 12 weeks, subjects with normal blood sugar): no hypoglycemic effect | Glucose, 12 W, Mean [3, 7]: 94.58 mg/dL | Glucose, 12 W, Median [3, 7]: 94.00 mg/dL | HbA1, 12 W, Mean [3, 7]: 5.66% | HbA1, 12 W, Median [3, 7]: 5.6% | Insulin, 12 W, Mean [3, 7]: 8.7 µIU/mL | Insulin, 12 W, Median [3, 7]: 7.5 µIU/mL | Glucose, Difference (12 W vs baseline) [3, 8]: -0.12 ± 8.35 mg/dL | Insulin, Difference (12 W vs baseline) [3, 8]: 1.75 ± 5.33 µIU/mL | Glucose, 12 W, Mean [3, 9]: 97.18 mg/dL | Glucose, 12 W, Median [3, 9]: 97.00 mg/dL | HbA1, 12 W, Mean [3, 9]: 5.64% | HbA1, 12 W, Median [3, 9]: 5.6% | Insulin, 12 W, Mean [3, 9]: 9.18 µIU/mL | Insulin, 12 W, Median [3, 9]: 7.1 µIU/mL | Glucose, Difference (12 W vs baseline) [3, 10]: 2.42 ± 10.10 mg/dL | Insulin, Difference (12 W vs baseline) [3, 10]: 1.27 ± 5.15 µIU/mL | lean body mass before and after administration ([4]; allulose administration groups, 12 weeks, control reduced by 0.61 kg): did not show a difference before and after administration | body fat before and after administration ([4]; allulose low-dose group and high-dose group, 12 weeks): slightly increased, but there was no statistically significant difference before and after administration | body fat accumulation and muscle mass reduction ([4]; conclusion from analysis of body components, 12 weeks): inhibited | Lean, 12 W, Mean [4, 7]: 40.24 kg | Fat, 12 W, Mean [4, 7]: 26.31 kg | Fat, Difference (average change at 12 weeks compared to base time) [4, 8]: 0.25 ± 1.34 kg | Lean, Difference (12 W vs baseline) [4, 8]: -0.22 ± 1.08 kg | Lean, 12 W, Mean [4, 9]: 42.26 kg | Fat, 12 W, Mean [4, 9]: 26.80 kg | Fat, Difference (average change at 12 weeks compared to base time) [4, 10]: 0.16 ± 0.91 kg | Lean, Difference (12 W vs baseline) [4, 10]: 0.05 ± 0.89 kg | Liver HU Mean, 12 W, Mean [5, 8]: 57.49 HU | Liver - Spleen HU (Liver minus Spleen), 12 W, Mean [5, 11]: 7.19 HU | Spleen HU Mean, 12 W, Mean [5, 11]: 50.30 HU | Liver HU Mean, Difference (12 W vs base line) [5, 8]: −0.78 ± 5.60 HU | Liver - Spleen HU, Difference (12 W vs base line) [5, 11]: −1.28 ± 5.36 HU | Spleen HU Mean, Difference (12 W vs base line) [5, 11]: 0.50 ± 2.77 HU | Liver HU Mean, 12 W, Mean [5, 10]: 55.17 HU | Liver - Spleen HU (Liver minus Spleen), 12 W, Mean [5, 12]: 4.75 HU | Spleen HU Mean, 12 W, Mean [5, 12]: 50.66 HU | Liver HU Mean, Difference (12 W vs base line) [5, 10]: −0.69 ± 5.17 HU | Liver - Spleen HU, Difference (12 W vs base line) [5, 12]: −0.55 ± 5.43 HU | Spleen HU Mean, Difference (12 W vs base line) [5, 12]: −0.41 ± 2.34 HU | ALT(SGPT), Mean [6, 8]: 22.21 U/L | ALT(SGPT), Median [6, 8]: 16.00 U/L | AST(SGOT), Mean [6, 8]: 18.76 U/L | AST(SGOT), Median [6, 8]: 18.00 U/L | Alkaline phosphatase, Mean [6, 8]: 183.21 U/L | Alkaline phosphatase, Median [6, 8]: 169.00 U/L | γ-GTP, Mean [6, 8]: 18.18 U/L | γ-GTP, Median [6, 8]: 14.00 U/L | ALT, change at 12 weeks compared to the base time [6, 13]: reduced | Alkaline phosphatase, change at 12 weeks compared to the base time [6, 13]: reduced | γ-GTP, change at 12 weeks compared to the base time [6, 13]: reduced | ALT(SGPT), Mean [6, 10]: 26.88 U/L | ALT(SGPT), Median [6, 10]: 19.00 U/L | AST(SGOT), Mean [6, 10]: 22.64 U/L | AST(SGOT), Median [6, 10]: 18.00 U/L | Alkaline phosphatase, Mean [6, 10]: 178.97 U/L | Alkaline phosphatase, Median [6, 10]: 170.00 U/L | γ-GTP, Mean [6, 10]: 33.58 U/L | γ-GTP, Median [6, 10]: 19.00 U/L | ALT, change at 12 weeks compared to the base time ([6]; low-dose group: allulose 6 g/d + glucose 6 g/d): reduced | Alkaline phosphatase, change at 12 weeks compared to the base time [6, 14]: reduced | γ-GTP, change at 12 weeks compared to the base time [6, 14]: reduced
